From US5159114A, “ACAT inhibitory benzanilides” (Rhone-Poulenc Sante, priority 1989, dated 1992) come the findings set out here.

In one assay the test system is plasma cholesterol. In words: In vivo inhibition of increases in plasma cholesterol concentrations in rats fed a cholesterol-supplemented diet. Also on record: species or system rat. The conditions noted are these: diet supplemented with cholesterol/cholic acid and 0.03% w/w test compound, after 3 days, relative to control animals fed cholesterol diet without drug.
The subject of assay [1] is acyl coenzyme-A:cholesterol-O-acyl transferase (ACAT;EC 2.3.1.26). As to the kind of experiment: In vitro inhibition of ACAT in liver microsomes from cholesterol-fed rats, incubated with radiolabelled oleoyl-CoA. In kind it is biochemical. The conditions noted are these: 1 μg/ml, rat liver microsomes. In general terms: Microsomes from liver hold many membrane-bound enzymes, among them those of drug oxidation.

`CCCCCCCCCCOc1ccc(C(=O)Nc2cc(C(=O)NCCCC)ccc2SC)cc1` [B, N-(2-methylthio-5-butylaminocarbonyl)phenyl-4-decyloxybenzamide]: in the assay with plasma cholesterol, the “In-vivo % Inhibition (of increases in plasma cholesterol concentrations)” value is 92%.

With `CCCCCCCCCCOc1ccc(C(=O)Nc2cc(C(=O)NCCSC)ccc2SC)cc1` [C, N-[2-methylthio-5-(2-methylthioethylaminocarbonyl)]phenyl-4-decyloxybenzamide], the “In-vitro % Inhibition (degree of ACAT inhibition)” value (“In-vitro % Inhibition” for short) in assay [1] was 98%. In addition, the “In-vivo % Inhibition (of increases in plasma cholesterol concentrations)” value in the assay with plasma cholesterol is listed as 91%.

Turning to `CCCCCCCCCCOc1ccc(C(=O)Nc2cc(C(=O)NCCOC)ccc2SC)cc1` [Compound A, N-[2-methylthio-5-(2-methoxyethylaminocarbonyl)]phenyl-4-decyloxybenzamide], the “In-vitro % Inhibition” value in assay [1] is given as 82%. The “In-vivo % Inhibition (of increases in plasma cholesterol concentrations)” value with plasma cholesterol stood at 100%.

Take `CCCCCCCCCCSc1ccc(C(=O)Nc2cc(C(=O)NCCSC)ccc2SC)cc1` [D, N-[2-methylthio-5-(2-methylthioethylaminocarbonyl)]phenyl-4-(decylthio)benzamide]: the “In-vitro % Inhibition” value in assay [1] is 94%. The “In-vivo % Inhibition (of increases in plasma cholesterol concentrations)” value in the assay on plasma cholesterol amounted to 100%.

With `CCCCCCCCCCOc1ccc(C(=O)Nc2cc(C(=O)NCCSC)ccc2OC)cc1` [E, N-[2-methoxy-5-(2-methylthioethylaminocarbonyl)]phenyl-4-decyloxybenzamide], the “In-vitro % Inhibition” value in assay [1] turned out to be 83%.

Consider `CCCCCCCCCOc1ccc(C(=O)Nc2cc(C(=O)NCCSC)ccc2OC)cc1` [F, N-[2-methoxy-5-(2-methylthioethylaminocarbonyl)]phenyl-4-nonyloxybenzamide], for which the “In-vitro % Inhibition” value in assay [1] was 87%.

On to `CCCCCCCCCCSc1ccc(C(=O)Nc2cc(C(=O)NCCCC)ccc2OC)cc1` [G, N-(2-methoxy-5-butylaminocarbonyl)phenyl-4-(decylthio)benzamide], for which the “In-vitro % Inhibition” value in assay [1] was 91%.
